Experimental data reported in publication PMC5218480 (PLoS ONE, 2017).

Tested on: MV-4-11 cells
Test: Gene expression microarray analysis (Affymetrix PrimeView) and GSEA
Type: cell-based, human
Parameters: RFU PODN (11730768_x_at) / Fold change /veh PODN (11730768_x_at) / RFU LINC00158 (11744669_a_at) / Fold change /veh LINC00158 (11744669_a_at) / RFU DUSP10 (11751237_a_at) / Fold change /veh DUSP10 (11751237_a_at) / RFU ID3 (11757404_x_at) / Fold change /veh ID3 (11757404_x_at) / RFU PLEKHG5 (11737974_s_at) / Fold change /veh PLEKHG5 (11737974_s_at) / RFU LRRC4B (11730491_at) / Fold change /veh LRRC4B (11730491_at) / RFU GIMAP4 (11747438_a_at) / Fold change /veh GIMAP4 (11747438_a_at) / RFU KRT8 (11758183_x_at) / Fold change /veh KRT8 (11758183_x_at) / RFU CNN1 (11734310_a_at) / Fold change /veh CNN1 (11734310_a_at) / RFU VPS37D (11726825_at) / Fold change /veh VPS37D (11726825_at) / RFU C10orf10 (11716522_x_at) / Fold change /veh C10orf10 (11716522_x_at) / RFU KIR2DL2 /// KIR2DL4 /// KIR2DL5A /// KIR2DL5B /// KIR2DS1 /// KIR2DS2 /// KIR2DS3 /// KIR2DS4 /// KIR3DL3 /// KIR3DL3 /// KIR3DS1 (11738374_at) / Fold change /veh KIR2DL2 /// KIR2DL4 /// KIR2DL5A /// KIR2DL5B /// KIR2DS1 /// KIR2DS2 /// KIR2DS3 /// KIR2DS4 /// KIR3DL3 /// KIR3DL3 /// KIR3DS1 (11738374_at) / RFU C1QL1 (11718748_at) / Fold change /veh C1QL1 (11718748_at) / RFU TMPRSS4 (11747572_a_at) / Fold change /veh TMPRSS4 (11747572_a_at) / RFU HAMP (11756126_x_at) / Fold change /veh HAMP (11756126_x_at) / RFU RNFT2 (11725882_a_at) / Fold change /veh RNFT2 (11725882_a_at) / RFU NR4A2 (11747474_a_at) / Fold change /veh NR4A2 (11747474_a_at) / RFU ABCC12 (11746883_a_at) / Fold change /veh ABCC12 (11746883_a_at) / RFU TMEM136 (11760407_x_at) / Fold change /veh TMEM136 (11760407_x_at) / RFU CLDN22 /// WWC2 (11732394_at) / Fold change /veh CLDN22 /// WWC2 (11732394_at) / RFU HLA-DPB1 (11760878_x_at) / Fold change /veh HLA-DPB1 (11760878_x_at) / RFU SPINT1 (11716480_a_at) / Fold change /veh SPINT1 (11716480_a_at) / RFU GAP43 (11754022_s_at) / Fold change /veh GAP43 (11754022_s_at) / RFU A4GNT (11735810_at) / Fold change /veh A4GNT (11735810_at) / RFU PRB3 (11715151_x_at) / Fold change /veh PRB3 (11715151_x_at) / RFU TUBB4B (11761932_at) / Fold change /veh TUBB4B (11761932_at) / RFU CAPN14 (11732068_a_at) / Fold change /veh CAPN14 (11732068_a_at) / RFU TMCC2 (11721928_a_at) / Fold change /veh TMCC2 (11721928_a_at) / RFU IRGQ (11745062_a_at) / Fold change /veh IRGQ (11745062_a_at) / RFU FAM174B (11720279_a_at) / Fold change /veh FAM174B (11720279_a_at) / RFU TMPRSS4 (11748680_a_at) / Fold change /veh TMPRSS4 (11748680_a_at) / RFU FAM212B (11763350_a_at) / Fold change /veh FAM212B (11763350_a_at) / RFU PLEKHG5 (11743358_a_at) / Fold change /veh PLEKHG5 (11743358_a_at) / RFU ZSCAN30 (11745921_a_at) / Fold change /veh ZSCAN30 (11745921_a_at) / RFU CMKLR1 (11741424_a_at) / Fold change /veh CMKLR1 (11741424_a_at) / RFU LOC101060620 /// MAPK8IP1 (11723275_at) / Fold change /veh LOC101060620 /// MAPK8IP1 (11723275_at) / RFU SPTSSB (11747773_x_at) / Fold change /veh SPTSSB (11747773_x_at) / RFU PRSS12 (11739890_at) / Fold change /veh PRSS12 (11739890_at) / RFU BIN1 (11741810_x_at) / Fold change /veh BIN1 (11741810_x_at) / RFU WNT11 (11732464_a_at) / Fold change /veh WNT11 (11732464_a_at) / RFU C10orf10 (11716521_a_at) / Fold change /veh C10orf10 (11716521_a_at) / RFU C5orf56 (11738089_at) / Fold change /veh C5orf56 (11738089_at) / RFU CYB561 (11721691_x_at) / Fold change /veh CYB561 (11721691_x_at) / RFU ANKRD19P (11752326_a_at) / Fold change /veh ANKRD19P (11752326_a_at) / RFU OR2T12 /// OR2T33 /// OR2T8 (11738714_s_at) / Fold change /veh OR2T12 /// OR2T33 /// OR2T8 (11738714_s_at) / RFU VCAN (11748164_a_at) / Fold change /veh VCAN (11748164_a_at) / RFU JSRP1 (11732532_at) / Fold change /veh JSRP1 (11732532_at) / RFU KRTAP10-11 (11738290_x_at) / Fold change /veh KRTAP10-11 (11738290_x_at) / RFU MYO3A (11730013_a_at) / Fold change /veh MYO3A (11730013_a_at) / RFU EBF3 (11725865_a_at) / Fold change /veh EBF3 (11725865_a_at) / RFU CAMK2N1 (11719241_x_at) / Fold change /veh CAMK2N1 (11719241_x_at) / RFU C5orf56 (11738088_a_at) / Fold change /veh C5orf56 (11738088_a_at) / RFU OLFML3 (11715873_a_at) / Fold change /veh OLFML3 (11715873_a_at) / RFU LOC100653217 /// NTM (11731650_a_at) / Fold change /veh LOC100653217 /// NTM (11731650_a_at) / RFU MAPK11 (11762145_a_at) / Fold change /veh MAPK11 (11762145_a_at) / RFU FIZ1 (11724087_x_at) / Fold change /veh FIZ1 (11724087_x_at) / RFU OASL (11726364_x_at) / Fold change /veh OASL (11726364_x_at) / RFU SOX15 (11748057_x_at) / Fold change /veh SOX15 (11748057_x_at) / RFU CD79A (11719716_a_at) / Fold change /veh CD79A (11719716_a_at) / RFU HIST1H1D (11736915_at) / Fold change /veh HIST1H1D (11736915_at) / RFU CASKIN2 (11723855_a_at) / Fold change /veh CASKIN2 (11723855_a_at) / RFU LOC730098 (11760151_x_at) / Fold change /veh LOC730098 (11760151_x_at) / RFU OR4N2 (11742367_at) / Fold change /veh OR4N2 (11742367_at) / RFU PRRT2 (11749266_a_at) / Fold change /veh PRRT2 (11749266_a_at) / RFU SNX32 (11753110_a_at) / Fold change /veh SNX32 (11753110_a_at) / RFU CDHR5 (11726645_a_at) / Fold change /veh CDHR5 (11726645_a_at) / RFU RCAN1 (11760418_a_at) / Fold change /veh RCAN1 (11760418_a_at) / RFU FAM167A (11723789_a_at) / Fold change /veh FAM167A (11723789_a_at) / RFU FAM26E (11764081_at) / Fold change /veh FAM26E (11764081_at) / RFU ISYNA1 (11749810_s_at) / Fold change /veh ISYNA1 (11749810_s_at) / RFU ACY1 (11761880_at) / Fold change /veh ACY1 (11761880_at) / RFU 11764098_at / Fold change /veh 11764098_at / RFU SAMD14 (11745864_x_at) / Fold change /veh SAMD14 (11745864_x_at) / RFU NPB (11741838_a_at) / Fold change /veh NPB (11741838_a_at) / RFU TMPRSS6 (11731388_a_at) / Fold change /veh TMPRSS6 (11731388_a_at) / RFU KRTAP10-2 (11738614_at) / Fold change /veh KRTAP10-2 (11738614_at) / RFU ARHGAP8 /// PRR5-ARHGAP8 (11727945_x_at) / Fold change /veh ARHGAP8 /// PRR5-ARHGAP8 (11727945_x_at) / RFU KRTAP5-7 /// NADSYN1 (11734609_at) / Fold change /veh KRTAP5-7 /// NADSYN1 (11734609_at) / RFU RASL12 (11751679_a_at) / Fold change /veh RASL12 (11751679_a_at) / RFU CDKN2B (11736163_a_at) / Fold change /veh CDKN2B (11736163_a_at) / RFU PRF1 (11729649_at) / Fold change /veh PRF1 (11729649_at) / RFU, ZNF638 /// ZNF638-IT1 / Fold change vs veh, ZNF638 /// ZNF638-IT1 / RFU, PANK3 / Fold change vs veh, PANK3 / RFU, SH3YL1 / Fold change vs veh, SH3YL1 / RFU, ZEB2 / Fold change vs veh, ZEB2 / RFU, NRIP1 / Fold change vs veh, NRIP1 / RFU, PTTG1IP / Fold change vs veh, PTTG1IP / RFU, CAPN2 / Fold change vs veh, CAPN2 / RFU, MED14 / Fold change vs veh, MED14 / RFU, SNORA58 / Fold change vs veh, SNORA58 / RFU, C1orf63 / Fold change vs veh, C1orf63 / RFU, LRRFIP1 / Fold change vs veh, LRRFIP1 / RFU, NDUFAF7 / Fold change vs veh, NDUFAF7 / RFU, SLC12A2 / Fold change vs veh, SLC12A2 / RFU, IBTK / Fold change vs veh, IBTK / RFU, ESF1 / Fold change vs veh, ESF1 / Fold change vs veh, TMEM50B / RFU, TAOK1 / Fold change vs veh, TAOK1 / RFU, ACBD3 / Fold change vs veh, ACBD3 / RFU, TMA16 / Fold change vs veh, TMA16 / RFU, RWDD3 / Fold change vs veh, RWDD3 / RFU, BCAT1 / Fold change vs veh, BCAT1 / RFU, EDEM3 / Fold change vs veh, EDEM3 / RFU, TMEM33 / Fold change vs veh, TMEM33 / RFU, WDR75 / Fold change vs veh, WDR75 / RFU, AHCTF1 / Fold change vs veh, AHCTF1 / RFU, TFRC / Fold change vs veh, TFRC / RFU, ZDHHC17 / Fold change vs veh, ZDHHC17 / RFU, NOM1 / Fold change vs veh, NOM1 / RFU, ARL8B / Fold change vs veh, ARL8B / RFU, ZBTB11 / Fold change vs veh, ZBTB11 / RFU, TAMM41 / Fold change vs veh, TAMM41 / RFU, KIAA1704 /// LOC100996395 / Fold change vs veh, KIAA1704 /// LOC100996395 / RFU, ING1 / Fold change vs veh, ING1 / RFU, TRMT61B / Fold change vs veh, TRMT61B / RFU, FUBP3 / Fold change vs veh, FUBP3 / RFU, TP53 / Fold change vs veh, TP53 / RFU, TNKS2 / Fold change vs veh, TNKS2 / RFU, ZFP14 / Fold change vs veh, ZFP14 / RFU, ACTR2 / Fold change vs veh, ACTR2 / RFU, PPP3R1 / Fold change vs veh, PPP3R1 / RFU, PIK3R1 / Fold change vs veh, PIK3R1 / RFU, HNRNPA1 / Fold change vs veh, HNRNPA1 / RFU, RNF170 / Fold change vs veh, RNF170 / RFU, ZNF28 / Fold change vs veh, ZNF28 / RFU, RNGTT / Fold change vs veh, RNGTT / RFU, OGT / Fold change vs veh, OGT / RFU, BRD1 / Fold change vs veh, BRD1 / RFU, MARS / Fold change vs veh, MARS / RFU, ZNF655 / Fold change vs veh, ZNF655 / RFU, FAHD1 / Fold change vs veh, FAHD1 / RFU, BDP1 / Fold change vs veh, BDP1 / RFU, LRRCC1 / Fold change vs veh, LRRCC1 / RFU, ARID1A / Fold change vs veh, ARID1A / RFU, ZNF146 / Fold change vs veh, ZNF146 / RFU, ZNF330 / Fold change vs veh, ZNF330 / RFU, GPN3 / Fold change vs veh, GPN3 / RFU, C9orf123 / Fold change vs veh, C9orf123 / RFU, N4BP2L2 / Fold change vs veh, N4BP2L2 / RFU, ARFIP1 / Fold change vs veh, ARFIP1 / RFU, FAM179B / Fold change vs veh, FAM179B / RFU, BCL10 / Fold change vs veh, BCL10 / RFU, UHRF1BP1L / Fold change vs veh, UHRF1BP1L / RFU, BET1 / Fold change vs veh, BET1 / RFU, CNOT2 / Fold change vs veh, CNOT2 / RFU, ZNF268 / Fold change vs veh, ZNF268 / Fold change vs veh, ZNF507 / RFU, DGCR2 / Fold change vs veh, DGCR2 / RFU, WDSUB1 / Fold change vs veh, WDSUB1 / Fold change vs veh, HSP90B1 /// MIR3652 / RFU, ADSS / Fold change vs veh, ADSS / RFU, GK / Fold change vs veh, GK / RFU, ZNF148 / Fold change vs veh, ZNF148 / RFU, TAF9 / Fold change vs veh, TAF9 / RFU, SLC1A5 / Fold change vs veh, SLC1A5 / RFU, SLMO2 / Fold change vs veh, SLMO2 / RFU, ABCC4 / Fold change vs veh, ABCC4 / RFU, LOC101060439 /// RAP1B / Fold change vs veh, LOC101060439 /// RAP1B / RFU, RFX7 / Fold change vs veh, RFX7 / RFU, GTPBP10 / Fold change vs veh, GTPBP10 / RFU, CNEP1R1 / Fold change vs veh, CNEP1R1 / RFU, BIVM-ERCC5 /// ERCC5 / Fold change vs veh, BIVM-ERCC5 /// ERCC5 / RFU, ILF3 / Fold change vs veh, ILF3 / RFU 11762660_at / Fold change /veh 11762660_at / RFU VCAN (11757783_s_at) / Fold change /veh VCAN (11757783_s_at) / RFU DDX43 (11728927_at) / Fold change /veh DDX43 (11728927_at) / RFU KRT8 (11758188_x_at) / Fold change /veh KRT8 (11758188_x_at) / RFU NKD1 (11759106_at) / Fold change /veh NKD1 (11759106_at) / RFU SRD5A1 (11742802_a_at) / Fold change /veh SRD5A1 (11742802_a_at) / RFU TPSAB1 /// TPSB2 (11721975_s_at) / Fold change /veh TPSAB1 /// TPSB2 (11721975_s_at) / RFU GSTM3 (11746129_a_at) / Fold change /veh GSTM3 (11746129_a_at) / RFU IL23R (11737362_x_at) / Fold change /veh IL23R (11737362_x_at) / RFU TMEM51 (11727254_a_at) / Fold change /veh TMEM51 (11727254_a_at) / RFU PIWIL2 (11732686_x_at) / Fold change /veh PIWIL2 (11732686_x_at) / RFU ORM1 (11744905_x_at) / Fold change /veh ORM1 (11744905_x_at) / RFU CCDC152 (11743942_at) / Fold change /veh CCDC152 (11743942_at) / RFU ECM1 (11717891_a_at) / Fold change /veh ECM1 (11717891_a_at) / RFU IL23R (11748794_a_at) / Fold change /veh IL23R (11748794_a_at) / RFU TNFAIP8L3 (11732012_x_at) / Fold change /veh TNFAIP8L3 (11732012_x_at) / RFU MBOAT4 (11741988_at) / Fold change /veh MBOAT4 (11741988_at) / RFU 11764193_at / Fold change /veh 11764193_at / RFU TMEM53 (11763286_at) / Fold change /veh TMEM53 (11763286_at) / RFU MAGEB2 (11727129_at) / Fold change /veh MAGEB2 (11727129_at) / RFU TMEM200A (11744735_a_at) / Fold change /veh TMEM200A (11744735_a_at) / RFU CCDC152 (11751479_a_at) / Fold change /veh CCDC152 (11751479_a_at) / RFU FAM211A (11726209_a_at) / Fold change /veh FAM211A (11726209_a_at) / RFU RGS16 (11746705_a_at) / Fold change /veh RGS16 (11746705_a_at) / RFU VCAN (11755009_s_at) / Fold change /veh VCAN (11755009_s_at) / RFU RHOB (11743442_s_at) / Fold change /veh RHOB (11743442_s_at) / RFU RGS16 (11720943_a_at) / Fold change /veh RGS16 (11720943_a_at) / RFU RGS16 (11720944_at) / Fold change /veh RGS16 (11720944_at) / RFU, VPS4B / Fold change vs veh, VPS4B / RFU, CREB1 / Fold change vs veh, CREB1 / RFU, DNAJC13 / Fold change vs veh, DNAJC13 / RFU, GNAQ / Fold change vs veh, GNAQ / RFU, CDK5R1 / Fold change vs veh, CDK5R1 / RFU, ZRANB3 / Fold change vs veh, ZRANB3 / RFU, CUL4A / Fold change vs veh, CUL4A / RFU, CCNY / Fold change vs veh, CCNY / RFU, UFL1 / Fold change vs veh, UFL1 / RFU, COG3 / Fold change vs veh, COG3 / RFU, DIAPH2 / Fold change vs veh, DIAPH2 / RFU, SKA2 / Fold change vs veh, SKA2 / RFU, AFF3 / Fold change vs veh, AFF3 / RFU, LMF1 / Fold change vs veh, LMF1 / RFU, IPO11 / Fold change vs veh, IPO11 / RFU, DFFB / Fold change vs veh, DFFB / RFU, FOXP1 / Fold change vs veh, FOXP1 / RFU, CARD8 / Fold change vs veh, CARD8 / RFU, STRN3 / Fold change vs veh, STRN3 / RFU, ADK / Fold change vs veh, ADK / RFU, RASSF2 / Fold change vs veh, RASSF2 / RFU, WIPF1 / Fold change vs veh, WIPF1 / RFU, LARP1B / Fold change vs veh, LARP1B / RFU, RASA1 / Fold change vs veh, RASA1 / RFU, RB1 / Fold change vs veh, RB1 / RFU, PPFIA1 / Fold change vs veh, PPFIA1 / RFU, MAT2A / Fold change vs veh, MAT2A / RFU, CCT5 / Fold change vs veh, CCT5 / RFU, WDR92 / Fold change vs veh, WDR92 / RFU, CUX1 / Fold change vs veh, CUX1 / RFU, TTC7A / Fold change vs veh, TTC7A / RFU, TMEM135 / Fold change vs veh, TMEM135 / RFU, DEPTOR / Fold change vs veh, DEPTOR / RFU, CPM / Fold change vs veh, CPM / RFU, DNAJB6 / Fold change vs veh, DNAJB6 / RFU, CACNA2D3 / Fold change vs veh, CACNA2D3 / RFU, DTX4 / Fold change vs veh, DTX4 / RFU, TFCP2 / Fold change vs veh, TFCP2 / RFU, GMCL1 /// GMCL1P1 / Fold change vs veh, GMCL1 /// GMCL1P1 / RFU, AEBP2 / Fold change vs veh, AEBP2 / RFU, SNHG1 /// SNORD22 /// SNORD25 /// SNORD26 /// SNORD27 /// SNORD28 /// SNORD29 /// SNORD31 / Fold change vs veh, SNHG1 /// SNORD22 /// SNORD25 /// SNORD26 /// SNORD27 /// SNORD28 /// SNORD29 /// SNORD31 / Fold change (Aza/veh), C12orf56 (ProbeSet 11735607_a_at) / Fold change (ACY-1035/veh), C12orf56 (ProbeSet 11735607_a_at) / Fold change (Aza/veh), FGFR1OP (ProbeSet 11751329_s_at) / Fold change (ACY-1035/veh), FGFR1OP (ProbeSet 11751329_s_at) / Fold change (Aza/veh), VPS36 (ProbeSet 11739960_a_at) / Fold change (ACY-1035/veh), VPS36 (ProbeSet 11739960_a_at) / RFU SYPL1 (11715823_x_at) / Fold change /veh SYPL1 (11715823_x_at) / RFU IGFBP7 (11715501_s_at) / Fold change /veh IGFBP7 (11715501_s_at) / RFU REEP3 (11722064_at) / Fold change /veh REEP3 (11722064_at) / RFU IGLL1 (11728026_x_at) / Fold change /veh IGLL1 (11728026_x_at): dose or concentration left out as unconfirmed
Conditions: ProbeSet 11724877_a_at; LIST D

Nc1ncn([C@@H]2O[C@H](CO)[C@@H](O)[C@H]2O)c(=O)n1 [azacitidine]
RFU, AEBP2: 23.96 RFU
